# Measurements: patent publication US9573908B2, “Broad spectrum pro-quorum-sensing molecules as inhibitors of virulence in vibrios” (priority 2012, dated 2017)
# Assays:
# [1] = system: V. cholerae ΔcqsA ΔluxS double synthase mutant; type: cell-based; conditions: for induction of bioluminescence / QS activation: ΔcqsA ΔluxS double synthase mutant (wild type LuxO)
# [2] = system: V. cholerae luxO^D47E strain; type: cell-based, Vibrio cholerae; conditions: for induction of bioluminescence / QS activation: luxO^D47E mutant
# [3] = system: qrr4 expression in V. cholerae luxO^D47E strain; type: cell-based, Vibrio cholerae; conditions: 50 μM compound
# vpsR = experiment: Transcription of the σ54-dependent gene vpsR; type: cell-based, Vibrio cholerae; conditions: in the presence of compound
# LuxO D47E = LuxO D47E (Vibrio cholerae serotype O1, UniProt Q9KT84, D47E); experiment: Coupled-enzyme ATPase assay, LuxO D47E; type: biochemical; conditions: for inhibition of ATP hydrolysis: FIG. 5A-C; for mode of inhibition: Lineweaver-Burk plots, parallel slopes
# E. coli NtrC = molecular target: T1, E. coli NtrC (Escherichia coli, UniProt P0AFB8, D54E); experiment: biochemical; conditions: read-out: inhibition of ATPase activity of purified E. coli NtrC
# T1 construct: His6 (N); made in house; host or cells: E. coli BL21 (DE3), strain WN2181 (pET28B-NtrC D54E)
# T1 sequence (P0AFB8 1-469 D54E): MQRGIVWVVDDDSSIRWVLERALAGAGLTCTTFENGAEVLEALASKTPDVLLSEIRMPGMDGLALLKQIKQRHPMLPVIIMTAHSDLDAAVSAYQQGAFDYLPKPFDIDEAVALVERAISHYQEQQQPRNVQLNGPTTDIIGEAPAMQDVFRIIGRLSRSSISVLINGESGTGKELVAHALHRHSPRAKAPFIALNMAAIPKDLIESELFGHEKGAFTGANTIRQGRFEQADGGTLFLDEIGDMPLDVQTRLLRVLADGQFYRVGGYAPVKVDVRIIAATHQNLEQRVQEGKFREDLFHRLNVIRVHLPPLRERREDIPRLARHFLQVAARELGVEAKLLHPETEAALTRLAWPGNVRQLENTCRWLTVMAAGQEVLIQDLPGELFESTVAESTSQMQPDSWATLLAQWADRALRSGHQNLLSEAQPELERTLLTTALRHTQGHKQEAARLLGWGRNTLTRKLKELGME
# [4] = system: V. parahaemolyticus luxO* mutant (LM4476); experiment: Colony opacity of V. parahaemolyticus; type: cell-based, Vibrio parahaemolyticus; conditions: 500 μM in medium
# LuxO D47E/I211F = LuxO D47E/I211F (Vibrio cholerae serotype O1, UniProt Q9KT84, D47E/I197F); experiment: Coupled-enzyme ATPase assay, LuxO D47E/I211F; type: biochemical; conditions: 100 μM Compound 12, 2.5 mM ATP (FIG. 11)
# [5] = system: V. cholerae luxO^D47E strain; type: cell-based, Vibrio cholerae; conditions: 0-200 μM compound 12, Western blot
# [6] = system: V. parahaemolyticus luxO* strain (LM4476); type: cell-based; conditions: 200 and 500 μM compound 12, Western blot
# [7] = system: V. parahaemolyticus LM4476 (luxO*) on cultured HeLa cells; experiment: V. parahaemolyticus cytotoxicity assay on HeLa cells (LDH release); conditions: 500 μM, luxO* mutant, MOI 10
Compound,"EC50 (potency) of QS activation ([1]; dose-response curves, FIG. 2C, comparison in words)",induction of bioluminescence / QS activation [1],induction of bioluminescence / QS activation [2],decrease of GFP production from qrr4-gfp transcriptional fusion [3] [fold],change in transcription of vpsR (vpsR),inhibition of ATP hydrolysis (LuxO D47E),mode of inhibition (LuxO D47E),inhibition at 250 µM (E. coli NtrC) [%],colony morphology [4],"enhancement in potency ([2]; EC50 from FIG. 3, tert-butyl carbinol side chain versus the series) [fold]",inhibition of ATPase activity of LuxO D47E/I211F (LuxO D47E/I211F),HapR level [5],TcpA level [5],VopD production and secretion [6],average cytotoxicity (HeLa cell lysis) ([7]; 2 to 3 hours post-infection) [%],cytotoxicity (HeLa cell lysis) ([7]; 4-hour post-infection) [%]
"CC(C)COC(=O)CSc1n[nH]c(=O)[nH]c1=O [Compound 11, Isobutyl 2-((3,5-dioxo-2,3,4,5-tetrahydro-1,2,4-triazin-6-yl)thio)acetate]",highest potency,activate QS,activate QS,~3,did not change significantly,inhibit ATP hydrolysis in a dose-dependent manner,uncompetitive inhibitors,~10,switch from translucent to opaque,,,,,,,
"CC(C)(C)COC(=O)CSc1n[nH]c(=O)[nH]c1=O [Compound 12, Neopentyl 2-((3,5-dioxo-2,3,4,5-tetrahydro-1,2,4-triazin-6-yl)thio)acetate]",,activate QS,activate QS,,,inhibit ATP hydrolysis in a dose-dependent manner,uncompetitive inhibitors,~10,switch from translucent to opaque,3,not inhibited,increased,decreased,decreased production and secretion,~30,~100
